Experimental data from patent publication US20180071317A1, “USE OF AGENTS THAT ALTER THE PERITUMORAL ENVIRONMENT FOR THE TREATMENT OF CANCER” (SERVICIO ANDALUZ DE SALUD, priority 2011, published 2018).

Tests used:
[1] = test system: macrophages in co-culture with cells isolated from primary human tumors; assay: Marker expression (IHC) in macrophages co-cultured with primary human tumor cells (colon, breast, ovarian, lung carcinoma, melanoma); assay type: cell-based; conditions: SP 1 μM;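 also: macrophages came from pleural or peritoneal washings of the patient who also supplied the tumor cells, and both were co-cultured on fresh blood plasma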
Description: To check that the interaction of tumor cells obtained directly from primary human immune cell/inflammatory (macrophages) cells, obtained from the patient stimulate secretion of substances by these macrophages recognized as important in survival of both cell types and in the progression of tumor cells, co-cultures were performed on fresh blood plasma, immune cell/inflammatory (macrophages) with tumor cells derived from primary tumors. All obtained from the same patient, to build an experimental model similar to human physiology.
Macrophages were obtained from washing or pleural or peritoneal from the same patient from which the primary tumor cells were obtained in each case.

[2] = test system: fibroblasts (PHF) co-cultured with human melanoma tumor cells (MEL-HO1); assay: Marker expression (IHC) in PHF co-cultured with MEL-HO1 tumor cells; assay type: cell-based; conditions: PHF co-cultured with MEL-HO1 + SP;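 also: values are the percentage of fibroblasts positive for each marker, with cultures grown in fresh healthy-donor blood plasma and each experiment run six times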
Description: (§1) All cultures were maintained 48 hours, following which the same cells were included in paraffin blocks for subsequent analysis of the expression of different markers by immunohistochemistry (see Example 1). […] All experiments were carried out sixfold. Analyzed markers in fibroblast cells (stromal cells) were: TGF-α, TGF-β1, TGF-β2, TGF-β3, SPARC, MMP-3, MMP-7, MMP-9, MMP-11, MMP-13 and MMP-14.

[3] = test system: fibroblasts (PHF) co-cultured with human glioma tumor cells (GAMG); assay: Marker expression (IHC) in PHF co-cultured with GAMG tumor cells; assay type: cell-based; conditions: co-culture with GAMG; SP 1 μM; 48 h;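 also: percentage of PHF fibroblasts positive for each marker, cultured in fresh plasma from a healthy donor, six replicates, with fibroblasts cultured alone as reference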
Description: as §1

[4] = test system: fibroblasts (PHF) co-cultured with tumor cells of human colon adenocarcinoma (SW-403); assay: Marker expression (IHC) in PHF co-cultured with SW-403 tumor cells; assay type: cell-based; conditions: co-culture with SW-403; SP 1 μM; 48 h
[5] = test system: human primary macrophages (PHM); assay: Marker expression (immunohistochemistry) in human primary macrophages with SP alone or with NK1 antagonists; assay type: cell-based; conditions: SP 1 μM; 48 h
Description: In this sense the next step was to analyze the effect exerted by the treatment with non-peptide NK1 antagonists in human primary macrophages (PHM) obtained and purified from pleural effusion samples obtained from men with chronic age range between 45 and 55 years. Briefly, the pleural fluid from chronic (rich in macrophages) was centrifuged.
After 48 hours of culture, cells were harvested and cellular paraffin blocks were constructed for immunohistochemical analysis (see Example 1). To analyze the expression of markers EGF, MMP-9, VEGF and IL-8 antibodies were used as follows: EGF (rabbit monoclonal antibody, anti-EGF; 07-1432. Merck-Millipore), MMP-9 (polyclonal rabbit anti-MMP-9: SAB4501896, Sigma-Aldrich), VEGF (mouse monoclonal anti-VEGF, GF25-100UG, Merck-Millipore) and TNF-α (mouse monoclonal anti-TNF-α, number MAB 1021 catalogue, obtained from Merck-Millipore). All of these antibodies were used at a concentration of 1/1000. System for labelling with a secondary antibody specific for the primary antibodies obtained from rabbit or mouse was used, as was necessary in each case, both the Envision (Dako). All experiments were carried out sixfold.

[6] = test system: fibroblasts (PHF) cells co-cultured with human T lymphoma tumor (DERL-7); assay: Marker expression (IHC) in PHF co-cultured with DERL-7 tumor cells; assay type: cell-based; conditions: PHF co-cultured with DERL-7 + SP
Description: All cultures were maintained 48 hours, following which the same cells were included in paraffin blocks for subsequent analysis of the expression of different markers by immunohistochemistry (see Example 1). The primary antibodies used to perform immunohistochemical assays and their concentration are detailed in Example 2. All experiments were carried out sixfold. Analyzed markers in fibroblast cells (stromal cells) were: TGF-α, TGF-β1, TGF-β2, TGF-β3, SPARC, MMP-3, MMP-7, MMP-9, MMP-11, MMP-13 and MMP-14.

[7] = test system: fibroblasts (PHF) co-cultured with tumor cells, thyroid carcinoma; assay: Marker expression (IHC) in PHF co-cultured with thyroid carcinoma tumor cells; assay type: cell-based, human; conditions: co-culture with thyroid carcinoma cells; SP 1 μM; 48 h;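 also: grown in fresh plasma from a healthy human donor, read-out is percent of fibroblasts positive for each marker, compared with fibroblasts cultured alone, run in six replicates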
Description: as §1

[8] = test system: fibroblasts (PHF) co-cultured with tumor cells, thyroid carcinoma (reference A-427); assay: as above; assay type: cell-based, human; conditions: co-culture with thyroid carcinoma cells; SP 1 μM; 48 h
Description: as §1

[9] = test system: fibroblasts (PHF) co-cultured with tumor cells, ovarian carcinoma (EFO-27); assay: Marker expression (IHC) in PHF co-cultured with EFO-27 tumor cells; assay type: cell-based, human; conditions: co-culture with EFO-27; SP 1 μM; 48 h;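 also: values are the percentage of PHF fibroblasts positive for each marker, cultured in fresh plasma from a healthy human donor, each experiment run in six replicates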
Description: as §1

[10] = test system: fibroblasts (PHF) co-cultivated with tumor cell lymphoblastic leukemia B (SDI); assay: Marker expression (IHC) in PHF co-cultured with SDI tumor cells; assay type: cell-based, human; conditions: PHF co-cultivated with SDI + SP
Description: as §1

[11] = co-culture with cells isolated from breast carcinoma
[12] = co-culture with cells isolated from colon carcinoma
[13] = co-culture with cells isolated from lung carcinoma
[14] = co-culture with cells isolated from melanoma
[15] = co-culture with cells isolated from ovarian carcinoma

## CSCC[C@H](NC(=O)[C@H](CC(C)C)NC(=O)CNC(=O)[C@H](Cc1ccccc1)NC(=O)[C@H](Cc1ccccc1)NC(=O)[C@H](CCC(N)=O)NC(=O)[C@H](CCC(N)=O)NC(=O)[C@@H]1CCCN1C(=O)[C@H](CCCCN)NC(=O)[C@@H]1CCCN1C(=O)[C@@H](N)CCCNC(=N)N)C(N)=O [SP]
[1]; [11]
  Percentage of macrophages which expressed EGF: 41.6 ± 4.2%
  Percentage of macrophages which expressed MMP-9: 39.5 ± 3.2%
  Percentage of macrophages which expressed VEGF: 37.4 ± 4.2%
[1]; [12]
  Percentage of macrophages which expressed EGF: 41.4 ± 4.2%
  Percentage of macrophages which expressed MMP-9: 39.5 ± 3.5%
  Percentage of macrophages which expressed VEGF: 38.5 ± 2.9%
[1]; [13]
  Percentage of macrophages which expressed EGF: 38.4 ± 2.9%
  Percentage of macrophages which expressed MMP-9: 39.4 ± 3.7%
  Percentage of macrophages which expressed VEGF: 37.4 ± 4.2%
[1]; [14]
  Percentage of macrophages which expressed EGF: 41.9 ± 3.2%
  Percentage of macrophages which expressed MMP-9: 39.5 ± 5.3%
  Percentage of macrophages which expressed VEGF: 35.4 ± 4.4%
[1]; [15]
  Percentage of macrophages which expressed EGF: 41.5 ± 4.2%
  Percentage of macrophages which expressed MMP-9: 39.5 ± 3.2%
  Percentage of macrophages which expressed VEGF: 37.4 ± 4%
[2]
  cells expressing MMP-3: 44.5 ± 4.7%
  cells expressing MMP-7: 55.5 ± 3.8%
  cells expressing MMP-9: 53.3 ± 2.4%
  cells expressing MMP-11: 24.4 ± 3.8%
  cells expressing MMP-13: 46.1 ± 3.5%
  cells expressing MMP-14: 46.2 ± 3.5%
  cells expressing SPARC: 44.5 ± 1.4%
  cells expressing TGF-α: 42.4 ± 3.2%
  cells expressing TGF-β1: 42.5 ± 2.1%
  cells expressing TGF-β2: 44.5 ± 1.9%
  cells expressing TGF-β3: 43.5 ± 2.6%
[3]
  PHF cells expressing MMP-3: 43.4 ± 2.8%
  PHF cells expressing MMP-7: 57.1 ± 3.8%
  PHF cells expressing MMP-9: 52.3 ± 2.4%
  PHF cells expressing MMP-11: 27.5 ± 3.8%
  PHF cells expressing MMP-13: 45.4 ± 3.6%
  PHF cells expressing MMP-14: 49.3 ± 3.5%
  PHF cells expressing SPARC: 51.2 ± 3.3%
  PHF cells expressing TGF-α: 42.5 ± 3.1%
  PHF cells expressing TGF-β1: 33.6 ± 3.1%
  PHF cells expressing TGF-β2: 40.7 ± 2.1%
  PHF cells expressing TGF-β3: 51 ± 1.6%
[4]
  PHF cells expressing MMP-3: 46.4 ± 1.9%
  PHF cells expressing MMP-7: 53.1 ± 2.2%
  PHF cells expressing MMP-9: 55.7 ± 1.6%
  PHF cells expressing MMP-11: 26.4 ± 2.6%
  PHF cells expressing MMP-13: 46.5 ± 3.7%
  PHF cells expressing MMP-14: 51.3 ± 3.6%
  PHF cells expressing SPARC: 48 ± 1.6%
  PHF cells expressing TGF-α: 42.5 ± 1%
  PHF cells expressing TGF-β1: 34.3 ± 1.2%
  PHF cells expressing TGF-β2: 42.5 ± 1.5%
  PHF cells expressing TGF-β3: 44 ± 1.9%
[5]
  macrophages expressing EGF: 27.4 ± 1.1%
  macrophages expressing MMP-9: 24.3 ± 1.4%
  macrophages expressing VEGF: 29.6 ± 2.1%
[6]
  cells expressing MMP-3: 63.4 ± 3.7%
  cells expressing MMP-7: 66.1 ± 4.8%
  cells expressing MMP-9: 62.3 ± 3.4%
  cells expressing MMP-11: 67.8 ± 4.8%
  cells expressing MMP-13: 61 ± 5.3%
  cells expressing MMP-14: 58.4 ± 3.5%
  cells expressing SPARC: 67 ± 4.2%
  cells expressing TGF-α: 62.5 ± 3.1%
  cells expressing TGF-β1: 64.5 ± 4.3%
  cells expressing TGF-β2: 70.6 ± 4.1%
  cells expressing TGF-β3: 61 ± 5.6%
[7]
  PHF cells expressing MMP-11: 29.4 ± 3.8%
[8]
  PHF cells expressing MMP-3: 43.1 ± 1.7%
  PHF cells expressing MMP-7: 56.4 ± 3.8%
  PHF cells expressing MMP-9: 51.4 ± 3.4%
  PHF cells expressing MMP-13: 4.25 ± 3.6%
  PHF cells expressing MMP-14: 49.1 ± 3.6%
  PHF cells expressing SPARC: 48.1 ± 1.3%
  PHF cells expressing TGF-α: 42.4 ± 1.2%
  PHF cells expressing TGF-β1: 33.7 ± 1.3%
  PHF cells expressing TGF-β2: 42.6 ± 1.1%
  PHF cells expressing TGF-β3: 42.1 ± 1.5%
[9]
  PHF cells expressing MMP-3: 44.4 ± 1.5%
  PHF cells expressing MMP-7: 55.1 ± 2.6%
  PHF cells expressing MMP-9: 56.6 ± 1.7%
  PHF cells expressing MMP-11: 22.4 ± 2.6%
  PHF cells expressing MMP-13: 55 ± 2.5%
  PHF cells expressing MMP-14: 46.2 ± 2.5%
  PHF cells expressing SPARC: 46 ± 2.2%
  PHF cells expressing TGF-α: 37.2 ± 2.1%
  PHF cells expressing TGF-β1: 35.5 ± 2.1%
  PHF cells expressing TGF-β2: 45.4 ± 1.2%
  PHF cells expressing TGF-β3: 42 ± 1.6%
[10]
  cells expressing MMP-3: 53.4 ± 5.7%
  cells expressing MMP-7: 59.1 ± 4.8%
  cells expressing MMP-9: 59.3 ± 3.4%
  cells expressing MMP-11: 47.4 ± 4.8%
  cells expressing MMP-13: 49.5 ± 6.5%
  cells expressing MMP-14: 53.9 ± 5.5%
  cells expressing SPARC: 56 ± 6.2%
  cells expressing TGF-α: 41.4 ± 3.1%
  cells expressing TGF-β1: 42.5 ± 4.2%
  cells expressing TGF-β2: 50.5 ± 1.1%
  cells expressing TGF-β3: 51.4 ± 5.5%
